Source: patent US20190054067A1, “COMPOSITIONS AND METHODS FOR TREATING COMPULSIVE-LIKE BEHAVIOR IN A SUBJECT” (UNIVERSITY OF THE SCIENCES, priority 2016, published 2019)
pEC50: −log10 of the molar value.

How the values were obtained:
[1] = cited from earlier work
[2] = molecular target: high sensitivity (HS) α4β2 receptors (Homo sapiens, UniProt P17787+P43681); settings: cited from earlier work
[3] = molecular target: low sensitivity (LS) α4β2 receptors (Homo sapiens, UniProt P17787+P43681); settings: cited from earlier work
Sequence of low sensitivity (LS) α4β2 receptors (P43681 29-627 limits assumed): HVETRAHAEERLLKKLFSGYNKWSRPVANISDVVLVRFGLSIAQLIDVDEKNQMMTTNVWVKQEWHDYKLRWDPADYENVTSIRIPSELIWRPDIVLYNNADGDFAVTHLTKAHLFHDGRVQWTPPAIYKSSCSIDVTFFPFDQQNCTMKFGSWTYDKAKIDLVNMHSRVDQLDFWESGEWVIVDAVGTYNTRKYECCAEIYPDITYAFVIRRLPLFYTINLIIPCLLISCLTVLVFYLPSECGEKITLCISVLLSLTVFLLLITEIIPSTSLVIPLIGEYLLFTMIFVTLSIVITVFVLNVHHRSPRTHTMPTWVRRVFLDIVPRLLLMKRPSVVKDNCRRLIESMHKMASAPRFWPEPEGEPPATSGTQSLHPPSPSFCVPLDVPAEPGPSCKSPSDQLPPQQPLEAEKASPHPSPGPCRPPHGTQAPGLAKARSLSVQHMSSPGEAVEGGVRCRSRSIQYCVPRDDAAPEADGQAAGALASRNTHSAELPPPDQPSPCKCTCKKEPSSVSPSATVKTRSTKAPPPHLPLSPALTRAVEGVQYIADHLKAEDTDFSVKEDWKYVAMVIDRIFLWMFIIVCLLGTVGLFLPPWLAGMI
Sequence of low sensitivity (LS) α4β2 receptors (P17787 26-502): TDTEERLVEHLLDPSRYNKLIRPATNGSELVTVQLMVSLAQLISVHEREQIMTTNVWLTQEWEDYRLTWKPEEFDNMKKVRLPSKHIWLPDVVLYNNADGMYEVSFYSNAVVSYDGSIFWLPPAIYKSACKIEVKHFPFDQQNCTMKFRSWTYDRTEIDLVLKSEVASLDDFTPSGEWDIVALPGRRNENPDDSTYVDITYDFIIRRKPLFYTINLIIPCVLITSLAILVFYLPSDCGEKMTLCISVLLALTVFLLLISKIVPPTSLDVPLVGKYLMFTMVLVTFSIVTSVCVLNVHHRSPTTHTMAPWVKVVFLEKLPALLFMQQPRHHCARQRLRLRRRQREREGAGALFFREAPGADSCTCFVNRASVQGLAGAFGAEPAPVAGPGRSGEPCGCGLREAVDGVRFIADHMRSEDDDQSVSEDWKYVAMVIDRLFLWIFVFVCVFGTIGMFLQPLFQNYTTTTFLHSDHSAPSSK

[4] = test system: compulsive-like BIG male mice; test: open field (OF) test, anxiety-like and locomotor behavior; type: in vivo, Mus musculus
Method: (§1) Compulsive-like BIG male mice, Mus musculus, were raised on wood shavings in polypropylene cages (27×17×12 cm) under controlled temperature (22±1° C.) and light (12:12 light-dark cycle) with free access to food (Purina Mills, Lab Diet Mouse Diet #5015, St. Louis, Mo.) and water. Animals were approximately 12-16 weeks of age at the start of each experiment.
(§2) Deformylflustrabromine hydrochloride (dFBr; Abcam Biochemicals) was dissolved in physiological saline (pH=6.7) to yield final doses of 2.0 mg/kg (0.27 mg/mL), 4 mg/kg (0.53 mg/mL) and 6 mg/kg (0.80 mg/mL). Saline was used as a vehicle control (0 mg/kg). A mouse of 40 g received an injection volume of 0.3 mL. Injection volumes were proportionally adjusted according to the body weight of individual animals.
Acute Study: Male BIG mice were divided into four treatment groups comprising vehicle (sterile saline), 2 mg/kg, 4 mg/kg and 6 mg/kg. Animals in each group (n=12 per group) were tested for nesting on day 1, MB on day 3 and open field (OF) on day 5. On the first day of testing animals randomly received dFBr or vehicle subcutaneously and in subsequent tests received the same dose. Days 2 and 4 were employed to avoid any residual effects of dFBr from previous administration. […]
Chronic Study; Since the foundation of the animal model was established through effective reversal of compulsive-like NB and MB behaviors by chronic fluoxetine treatment, a chronic regimen was also conducted to establish the sustained and long term effects of dFBr on NB and MB. […] NB, MB and OF behaviors were assessed in the final week (weeks 5) after dFBr administration (NB after 1, 2, 3, 4, 5 and 24 h, and MB after 2 h of drug injection). […]
Anxiety-like behaviors were determined through the open field test. […] The animals were placed in the center of the open field, and their behavior was video taped for 3 min and analyzed with the aid of ANYMAZE™ video tracking software (Stoelting Co., Ill.). The time spent in the center (anxiety-like measure) and total distance travelled (locomotion) in the entire open field were measured. […]
Statistical analysis was performed in Graphpad Prism (GraphPad Software, Inc) and Statistical Analysis System Software (Version 9.4, Cary, N.C.). Nest-building (grams of cotton), marble burying (number of marbles at least ⅔ buried) and open field measures (time in center and total distance travelled) were expressed as the mean±standard error of the mean (SEM). […] Nesting scores at different time points, marble burying and open field results were analyzed by one-way analysis of variance (ANOVA), whereas overall drug and drug by time interaction effect between 0-5 hours was done by two-way analysis of variance (ANOVA). […]

[5] = test system: compulsive-like BIG male mice; test: compulsive-like marble burying (MB) behavior; type: in vivo, Mus musculus; settings: for marble-burying behavior (marbles at least 2/3 buried) vs control: acute, 2 h after administration; for suppression of MB vs control: chronic, fifth week (day 31), 2 h after injection
Method: as §1, §2
(§3) Acute Study: Male BIG mice were divided into four treatment groups comprising vehicle (sterile saline), 2 mg/kg, 4 mg/kg and 6 mg/kg. Animals in each group (n=12 per group) were tested for nesting on day 1, MB on day 3 and open field (OF) on day 5. On the first day of testing animals randomly received dFBr or vehicle subcutaneously and in subsequent tests received the same dose. Days 2 and 4 were employed to avoid any residual effects of dFBr from previous administration. For nesting, data were collected after 1, 2, 3, 4, 5 and 24 h due to the progressive nature of the NB (The BIG mice typically get excited and indulge in excessive and repetitive NB when introduced to cotton for the first 3-4 h in the light cycle. This excessive and repetitive nesting activity resumes again in the dark cycle). MB and OF behavior was performed 2 h after dFBr administration (FIG. 1).
(§4) Chronic Study; Since the foundation of the animal model was established through effective reversal of compulsive-like NB and MB behaviors by chronic fluoxetine treatment, a chronic regimen was also conducted to establish the sustained and long term effects of dFBr on NB and MB. Animals belonging to 0, 2, 4 and 6 mg/kg dose group (n=12 per group) received single subcutaneous injection of dFBr or saline daily for 32 days. NB, MB and OF behaviors were assessed in the final week (weeks 5) after dFBr administration (NB after 1, 2, 3, 4, 5 and 24 h, and MB after 2 h of drug injection). NB was performed on day 30, MB on day 31 and OF on day 32 (FIG. 1).
The marble-burying test is an effective test for determining compulsive-like behavior in mice. […] Two hours after dFBr administration, compulsive-like male mice were individually introduced to a polypropylene cage (37×21×14 cm) containing 20 glass marbles (10 mm in diameter) evenly spaced on 5 cm deep wood chip bedding without access to food or water for 20 min. Testing was carried out in the testing room separate from the housing room. The total number of marbles buried at least ⅔ in the 20-min period was quantified as compulsive-like digging behavior. After the 20-min test, the animals were returned to their home cages.
(§5) Statistical analysis was performed in Graphpad Prism (GraphPad Software, Inc) and Statistical Analysis System Software (Version 9.4, Cary, N.C.). Nest-building (grams of cotton), marble burying (number of marbles at least ⅔ buried) and open field measures (time in center and total distance travelled) were expressed as the mean±standard error of the mean (SEM). The nest building data were shown as grams of cotton used, whereas the statistical analysis was conducted on the square-root transformed nesting scores in order to normalize the data (Bult & Lynch, 2000, Behavior Genetics 30:193-206). Nesting scores at different time points, marble burying and open field results were analyzed by one-way analysis of variance (ANOVA), whereas overall drug and drug by time interaction effect between 0-5 hours was done by two-way analysis of variance (ANOVA). Pairwise comparisons for significant differences were tested by the post-hoc Bonferroni multiple comparison test. A probability level of p<0.05 was used as an index of statistical significance in all cases.

[6] = test system: compulsive-like BIG male mice; test: compulsive-like nest building (NB) behavior; type: in vivo, Mus musculus; settings: for overall nesting scores vs control (saline) / overall nesting scores vs control: 0-24 h; for suppression of NB vs control: chronic (daily s.c., tested day 30); for overall nesting scores vs control: chronic; for effect on NB (ANOVA over dose groups): chronic, 2, 4 and 6 mg/kg groups
Method: as §1, §2, §3, §4
Nest-building behavior was performed to assess compulsive-like behavior in the mice. For both acute and chronic studies, immediately following subcutaneous injection of dFBr, compulsive-like male mice were singly housed and provided with a pre-weighed roll of cotton (Mountain Mist cotton batting, Troy, Inc., Chicago, Ill.) in the cage-top food hopper. The cotton roll was weighed after 1, 2, 3, 4, 5 and 24 hours. Nesting behavior was quantified by the grams of cotton used during each testing period.
as §5

compulsive-like BIG mice = settings: cited from earlier work
[7] = test system: compulsive-like BIG male mice; settings: compulsive-like BIG mice (Greene-Schloesser et al., 2011); cited from earlier work
[8] = test system: compulsive-like BIG male mice; settings: compulsive-like BIG mice (Greene-Schloesser et al., 2011); cited from earlier work; remark: listed apart in the source
[9] = acute, 0, 2, 4, 6 mg/kg s.c., 2 h after administration
[10] = chronic regimen (day 32), 0, 2, 4, 6 mg/kg

Sequence of high sensitivity (HS) α4β2 receptors (P43681 29-627 limits assumed): as the sequence (P43681 29-627 limits assumed) above
Sequence of high sensitivity (HS) α4β2 receptors (P17787 26-502): as the sequence (P17787 26-502) above

## C=CC(C)(C)c1[nH]c2cc(Br)ccc2c1CCNC [dFBr, 2-[6-bromo-2-(2-methylbut-3-en-2-yl)-1H-indol-3-yl]-N-methylethanamine]
[1]; after 90 min of subcutaneous administration
  amount reaching the cerebrospinal fluid: around 36%
[1]; rats, after administration
  time of peak levels in the cerebrospinal fluid: 90 min
[2]
  potentiation of acetylcholine-induced whole cell responses: 370%
[2]; read-out: EC50 of potentiation
  pEC50: 4.40
[3]
  potentiation of acetylcholine-induced whole cell responses: 260%
[3]; read-out: EC50 of potentiation
  pEC50: 5.60
[4]; [9]
  time spent in center of the OF (anxiety-like): No significant differences
  total distance traveled (locomotor activity): not different among the treatment groups
[4]; [10]
  time in center: did not differ among treatment groups
  total distance: did not differ among treatment groups
[5]; 2 mg/kg s.c.
  marble-burying behavior (marbles at least 2/3 buried) vs control: decreased marble-burying behavior
[5]; 4 mg/kg s.c.
  marble-burying behavior (marbles at least 2/3 buried) vs control: decreased marble-burying behavior
[5]; 6 mg/kg s.c.
  marble-burying behavior (marbles at least 2/3 buried) vs control: decreased marble-burying behavior
[5]; chronic regimen, 2 mg/kg, 2 h time point
  reduction of MB behavior vs control: not significant
[5]; 4 mg/kg
  suppression of MB vs control: maximum suppression of MB
[5]; 6 mg/kg
  suppression of MB vs control: maximum suppression of MB
[6]; acute, 2 mg/kg s.c., 0-1 h
  nesting (cotton used) vs control (saline): no significant attenuation of nesting
[6]; acute, 2 mg/kg s.c.
  overall nesting scores vs control (saline): significantly below the control group
[6]; acute, 2 mg/kg s.c., 1-2 h
  nesting (cotton used) vs control (saline): no significant effect
[6]; acute, 2 mg/kg s.c., 2-3 h
  nesting (cotton used) vs control (saline): No significant difference
[6]; acute, 2 mg/kg s.c., 3-4 h
  nesting (cotton used) vs control (saline): not significantly different
[6]; acute, 2 mg/kg s.c., 4-5 h
  nesting (cotton used) vs control (saline): not significantly different
[6]; acute, 2 mg/kg s.c., 5-24 h
  nesting (cotton used) vs control (saline): suppressed the nesting score significantly
[6]; acute, 2 mg/kg s.c., first 5 hours
  fractional nesting score (nesting score divided by average of vehicle group): ~1
[6]; acute, 2 mg/kg s.c., overall 0-5 h
  nesting (cotton used) vs control (saline): did not attenuate nesting
[6]; acute, 4 mg/kg s.c.
  time of greatest suppression of nesting (fractional nesting score): 1 to 2 h
  overall nesting scores vs control (saline): significantly below the control group
[6]; acute, 4 mg/kg s.c., 0-1 h
  nesting (cotton used) vs control (saline): no significant attenuation of nesting
[6]; acute, 4 mg/kg s.c., 1-2 h
  nesting (cotton used) vs control (saline): significantly attenuated nesting
[6]; acute, 4 mg/kg s.c., 2-3 h
  nesting (cotton used) vs control (saline): No significant difference
[6]; acute, 4 mg/kg s.c., 3-4 h
  nesting (cotton used) vs control (saline): significantly reduced
[6]; acute, 4 mg/kg s.c., 4-5 h
  nesting (cotton used) vs control (saline): not significantly different
[6]; acute, 4 mg/kg s.c., 5-24 h
  nesting (cotton used) vs control (saline): suppressed the nesting score significantly
[6]; acute, 4 mg/kg s.c., overall 0-5 h
  nesting (cotton used) vs control (saline): significantly reduced
[6]; acute, 6 mg/kg s.c.
  time of greatest suppression of nesting (fractional nesting score): 1 to 2 h
  overall nesting scores vs control (saline): significantly below the control group
[6]; acute, 6 mg/kg s.c., 0-1 h
  nesting (cotton used) vs control (saline): no significant attenuation of nesting
[6]; acute, 6 mg/kg s.c., 1-2 h
  nesting (cotton used) vs control (saline): significantly attenuated nesting
[6]; acute, 6 mg/kg s.c., 2-3 h
  nesting (cotton used) vs control (saline): significantly reduced
[6]; acute, 6 mg/kg s.c., 3-4 h
  nesting (cotton used) vs control (saline): significantly reduced
[6]; acute, 6 mg/kg s.c., 4-5 h
  nesting (cotton used) vs control (saline): not significantly different
[6]; acute, 6 mg/kg s.c., 5-24 h
  nesting (cotton used) vs control (saline): suppressed the nesting score significantly
[6]; acute, 6 mg/kg s.c., overall 0-5 h
  nesting (cotton used) vs control (saline): significantly reduced
[6]; 2 mg/kg, 1-2 h
  suppression of NB vs control: main attenuating effects
[6]; 4 mg/kg, 0-1 h
  suppression of NB vs control: most effective doses
[6]; 6 mg/kg, 0-1 h
  suppression of NB vs control: most effective doses
[6]; 6 mg/kg, 1-2 h
  suppression of NB vs control: main attenuating effects
[6]; 2 mg/kg
  overall nesting scores vs control: significantly below the control group
[6]; 4 mg/kg
  overall nesting scores vs control: significantly below the control group
[6]; 6 mg/kg
  overall nesting scores vs control: significantly below the control group
[6]; 2-3 h
  effect on NB (ANOVA over dose groups): No significant effect
[6]; 3-4 h
  effect on NB (ANOVA over dose groups): No significant effect
[6]; 4-5 h
  effect on NB (ANOVA over dose groups): No significant effect

## CNCCC(Oc1ccc(C(F)(F)F)cc1)c1ccccc1 (centres unmarked) [fluoxetine]
compulsive-like BIG mice
  overall wheel-running locomotion: failed to reduce
[7]
  NB behavior: significantly attenuated
[8]
  MB behavior: significantly attenuated
